Results published in ChEMBL document CHEMBL4257490, “Development of a peptide-based bifunctional chelator conjugated to a cytotoxic drug for the treatment of melanotic melanoma” (Medchemcomm, 2018).

How the values were obtained:
[1] = Drug uptake in tumor muscle of Balb/c mouse allografted with mouse B16F10 cells using 99mTc(CO)3-labeled compound at 10 to 12 MBq/kg, iv measured at 2 hrs; format: ADME, organism-based; conditions: in vivo
[2] = Drug uptake in tumor of Balb/c mouse allografted with mouse B16F10 cells using 99mTc(CO)3-labeled compound at 4 to 8 MBq, iv measured at 4 hrs by scintigraphic imaging method; format: ADME, organism-based, Neoplasm; conditions: in vivo
[3] = Drug uptake in heart of Balb/c mouse allografted with mouse B16F10 cells using 99mTc(CO)3-labeled compound at 10 to 12 MBq/kg, iv measured at 2 hrs; format: ADME, organism-based; conditions: in vivo
[4] = Drug uptake in intestine of Balb/c mouse allografted with mouse B16F10 cells using 99mTc(CO)3-labeled compound at 10 to 12 MBq/kg, iv measured at 2 hrs; format: ADME, organism-based; conditions: in vivo
[5] = Ratio of drug level in tumor to muscle of Balb/c mouse allografted with mouse B16F10 cells using 99mTc(CO)3-labeled compound at 10 to 12 MBq/kg, iv measured at 4 hrs; format: ADME, organism-based, Tumor/tissue; conditions: in vivo
[6] = Hemolytic activity in rat erythrocytes up to 50 uM after 1 hr relative to control; format: ADME, cell-based, Erythrocyte; conditions: read-out: Activity
[7] = Drug uptake in urinary bladder of Balb/c mouse allografted with mouse B16F10 cells using 99mTc(CO)3-labeled compound at 4 to 8 MBq, iv measured at 4 hrs by scintigraphic imaging method; format: ADME, organism-based; conditions: in vivo
[8] = Drug degradation in histidine solution using 99mTc(CO)3-labeled compound after 24 hrs by TLC method; format: physicochemical; conditions: read-out: Drug degradation
[9] = Drug uptake in mouse B16F10 cells using 99mTc(CO)3-labeled compound at 15 to 20 MBq/ml after 30 mins by gamma scintillation counting method relative to total added activity; format: ADME, cell-based; conditions: b16-f10, 0.5 h
[10] = Ratio of drug level in tumor to muscle of Balb/c mouse allografted with mouse B16F10 cells using 99mTc(CO)3-labeled compound at 10 to 12 MBq/kg, iv measured at 2 hrs; format: ADME, organism-based, Tumor/tissue; conditions: in vivo
[11] = Drug uptake in urine of Balb/c mouse allografted with mouse B16F10 cells using 99mTc(CO)3-labeled compound at 10 to 12 MBq/kg, iv measured at 2 hrs; format: ADME, organism-based; conditions: in vivo
[12] = Drug uptake in kidney of Balb/c mouse allografted with mouse B16F10 cells using 99mTc(CO)3-labeled compound at 4 to 8 MBq, iv measured at 4 hrs by scintigraphic imaging method; format: ADME, organism-based; conditions: in vivo
[13] = Ratio of drug level in tumor to blood of Balb/c mouse allografted with mouse B16F10 cells using 99mTc(CO)3-labeled compound at 10 to 12 MBq/kg, iv measured at 2 hrs; format: ADME, organism-based, Tumor/tissue
[14] = Stability in saline assessed as parent compond remaining using 99mTc(CO)3-labeled compound after 24 hrs by TLC method; format: physicochemical; conditions: read-out: Stability
[15] = Drug uptake in urine of Balb/c mouse allografted with mouse B16F10 cells using 99mTc(CO)3-labeled compound at 10 to 12 MBq/kg, iv measured at 4 hrs; format: ADME, organism-based; conditions: in vivo
[16] = Drug uptake in lung of Balb/c mouse allografted with mouse B16F10 cells using 99mTc(CO)3-labeled compound at 10 to 12 MBq/kg, iv measured at 2 hrs; format: ADME, organism-based; conditions: in vivo
[17] = Drug uptake in blood of Balb/c mouse allografted with mouse B16F10 cells using 99mTc(CO)3-labeled compound at 10 to 12 MBq/kg, iv measured at 4 hrs; format: ADME, organism-based; conditions: in vivo
[18] = Drug uptake in gastrointestinal tract of Balb/c mouse allografted with mouse B16F10 cells using 99mTc(CO)3-labeled compound at 4 to 8 MBq, iv measured at 4 hrs by scintigraphic imaging method; format: ADME, organism-based; conditions: in vivo
[19] = Drug uptake in liver of Balb/c mouse allografted with mouse B16F10 cells using 99mTc(CO)3-labeled compound at 10 to 12 MBq/kg, iv measured at 4 hrs; format: ADME, organism-based; conditions: in vivo
[20] = Drug uptake in heart of Balb/c mouse allografted with mouse B16F10 cells using 99mTc(CO)3-labeled compound at 10 to 12 MBq/kg, iv measured at 4 hrs; format: ADME, organism-based; conditions: in vivo
[21] = Ratio of drug level in tumor to blood of Balb/c mouse allografted with mouse B16F10 cells using 99mTc(CO)3-labeled compound at 10 to 12 MBq/kg, iv measured at 4 hrs; format: ADME, organism-based, Tumor/tissue
[22] = Hemolytic activity in rat erythrocytes at 100 uM after 1 hr relative to control; format: ADME, cell-based, Erythrocyte; conditions: read-out: Activity
[23] = Drug uptake in spleen of Balb/c mouse allografted with mouse B16F10 cells using 99mTc(CO)3-labeled compound at 10 to 12 MBq/kg, iv measured at 4 hrs; format: ADME, organism-based; conditions: in vivo
[24] = Drug uptake in stomach of Balb/c mouse allografted with mouse B16F10 cells using 99mTc(CO)3-labeled compound at 10 to 12 MBq/kg, iv measured at 2 hrs; format: ADME, organism-based; conditions: in vivo
[25] = n-Octanol-phosphate buffer partition co-efficient, log P of 99mTc(CO)3-labeled compound at 2 to 3 KBq after 1 min by gamma scintillation counting method; format: physicochemical
[26] = Drug uptake in mouse B16F10 cells using 99mTc(CO)3-labeled compound at 15 to 20 MBq/ml after 240 mins by gamma scintillation counting method; format: ADME, cell-based; conditions: b16-f10, 4 h
[27] = Drug uptake in intestine of Balb/c mouse allografted with mouse B16F10 cells using 99mTc(CO)3-labeled compound at 10 to 12 MBq/kg, iv measured at 4 hrs; format: ADME, organism-based; conditions: in vivo
[28] = Drug uptake in lung of Balb/c mouse allografted with mouse B16F10 cells using 99mTc(CO)3-labeled compound at 10 to 12 MBq/kg, iv measured at 4 hrs; format: ADME, organism-based; conditions: in vivo
[29] = Drug uptake in blood of Balb/c mouse allografted with mouse B16F10 cells using 99mTc(CO)3-labeled compound at 10 to 12 MBq/kg, iv measured at 2 hrs; format: ADME, organism-based; conditions: in vivo
[30] = Drug uptake in liver of Balb/c mouse allografted with mouse B16F10 cells using 99mTc(CO)3-labeled compound at 10 to 12 MBq/kg, iv measured at 2 hrs; format: ADME, organism-based; conditions: in vivo
[31] = Drug uptake in kidney of Balb/c mouse allografted with mouse B16F10 cells using 99mTc(CO)3-labeled compound at 10 to 12 MBq/kg, iv measured at 2 hrs; format: ADME, organism-based; conditions: in vivo
[32] = Drug uptake in muscle of Balb/c mouse allografted with mouse B16F10 cells using 99mTc(CO)3-labeled compound at 10 to 12 MBq/kg, iv measured at 4 hrs; format: ADME, organism-based, Muscle tissue; conditions: in vivo
[33] = Drug uptake in kidney of Balb/c mouse allografted with mouse B16F10 cells using 99mTc(CO)3-labeled compound at 10 to 12 MBq/kg, iv measured at 4 hrs; format: ADME, organism-based; conditions: in vivo
[34] = Drug uptake in stomach of Balb/c mouse allografted with mouse B16F10 cells using 99mTc(CO)3-labeled compound at 10 to 12 MBq/kg, iv measured at 4 hrs; format: ADME, organism-based; conditions: in vivo
[35] = Drug uptake in spleen of Balb/c mouse allografted with mouse B16F10 cells using 99mTc(CO)3-labeled compound at 10 to 12 MBq/kg, iv measured at 2 hrs; format: ADME, organism-based; conditions: in vivo
[36] = Drug uptake in muscle of Balb/c mouse allografted with mouse B16F10 cells using 99mTc(CO)3-labeled compound at 10 to 12 MBq/kg, iv measured at 2 hrs; format: ADME, organism-based, Muscle tissue; conditions: in vivo
[37] = Drug uptake in tumor muscle of Balb/c mouse allografted with mouse B16F10 cells using 99mTc(CO)3-labeled compound at 10 to 12 MBq/kg, iv measured at 4 hrs; format: ADME, organism-based; conditions: in vivo
[38] = Drug uptake in liver of Balb/c mouse allografted with mouse B16F10 cells using 99mTc(CO)3-labeled compound at 4 to 8 MBq, iv measured at 4 hrs by scintigraphic imaging method; format: ADME, organism-based; conditions: in vivo
[39] = Metabolic stability in rat serum assessed as parent compound remaining using 99mTc(CO)3-labeled compound after 24 hrs by TLC method; format: ADME, cell-free; conditions: read-out: Stability
[40] = Drug uptake in mouse B16F10 cells using 99mTc(CO)3-labeled compound at 15 to 20 MBq/ml after 30 mins by gamma scintillation counting method; format: ADME, cell-based; conditions: b16-f10, 0.5 h
[41] = Drug uptake in mouse B16F10 cells using 99mTc(CO)3-labeled compound at 15 to 20 MBq/ml after 240 mins by gamma scintillation counting method relative to total added activity; format: ADME, cell-based; conditions: b16-f10, 4 h

Substance: H-HYKHGK-NH2
- Drug uptake [1]: 1.83 % ID/g
- Drug uptake [2]: Active
- Drug uptake [3]: 0.08 % ID/g
- Drug uptake [4]: 7.61 % ID/g
- Ratio [5]: 18.81
- hemolysis at 1 h [6]: 5 to 6%
- Drug uptake [7]: Active
- degraded at 24 h [8]: 5%
- Drug uptake [9]: 4.76%
- Ratio [10]: 10.11
- Drug uptake [11]: 42.15 %ID/ml
- Drug uptake [12]: Active
- Kp at 2 h [13]: 0.97
- remaining at 24 h [14]: ≥ 92%
- Drug uptake [15]: 49.26 %ID/ml
- Drug uptake [16]: 0.33 % ID/g
- Drug uptake [17]: 1.65 %ID/ml
- Drug uptake [18]: Active
- Drug uptake [19]: 14.64 % ID/g
- Drug uptake [20]: 0.06 % ID/g
- Kp at 4 h [21]: 1.82
- hemolysis at 1 h, 100 µM [22]: 7 to 9%
- Drug uptake [23]: 0.45 % ID/g
- Drug uptake [24]: 0.23 % ID/g
- logP at 1 min [25]: -0.978
- Drug uptake [26]: 83%
- Drug uptake [27]: 8.32 % ID/g
- Drug uptake [28]: 0.24 % ID/g
- Drug uptake [29]: 1.88 %ID/ml
- Drug uptake [30]: 18.15 % ID/g
- Drug uptake [31]: 17.15 % ID/g
- Drug uptake [32]: 0.16 % ID/g
- Drug uptake [33]: 15.76 % ID/g
- Drug uptake [34]: 0.19 % ID/g
- Drug uptake [35]: 0.63 % ID/g
- Drug uptake [36]: 0.18 % ID/g
- Drug uptake [37]: 3.01 % ID/g
- Drug uptake [38]: Active
- remaining at 24 h [39]: ≥ 92%
- Drug uptake [40]: 41.41%
- Drug uptake [41]: 9.59%

Substance: H-HYKHGKDGR-NH2
- Drug uptake [1]: 0.92 % ID/g
- Drug uptake [2]: Not Active
- Drug uptake [3]: 0.09 % ID/g
- Drug uptake [4]: 7.5 % ID/g
- Ratio [5]: 7.78
- hemolysis at 1 h [6]: 5 to 6%
- Drug uptake [7]: Active
- degraded at 24 h [8]: 5%
- Drug uptake [9]: 3.99%
- Ratio [10]: 5.75
- Drug uptake [11]: 41.15 %ID/ml
- Drug uptake [12]: Active
- Kp at 2 h [13]: 0.61
- remaining at 24 h [14]: ≥ 92%
- Drug uptake [15]: 45.95 %ID/ml
- Drug uptake [16]: 0.25 % ID/g
- Drug uptake [17]: 1.31 %ID/ml
- Drug uptake [18]: Active
- Drug uptake [19]: 18.89 % ID/g
- Drug uptake [20]: 0.07 % ID/g
- Kp at 4 h [21]: 0.83
- hemolysis at 1 h, 100 µM [22]: 7 to 9%
- Drug uptake [23]: 0.54 % ID/g
- Drug uptake [24]: 0.29 % ID/g
- logP at 1 min [25]: -1.34
- Drug uptake [26]: 76%
- Drug uptake [27]: 6.3 % ID/g
- Drug uptake [28]: 0.19 % ID/g
- Drug uptake [29]: 1.5 %ID/ml
- Drug uptake [30]: 21.17 % ID/g
- Drug uptake [31]: 16.12 % ID/g
- Drug uptake [32]: 0.14 % ID/g
- Drug uptake [33]: 13.91 % ID/g
- Drug uptake [34]: 0.21 % ID/g
- Drug uptake [35]: 0.76 % ID/g
- Drug uptake [36]: 0.16 % ID/g
- Drug uptake [37]: 1.09 % ID/g
- Drug uptake [38]: Active
- remaining at 24 h [39]: ≥ 92%
- Drug uptake [40]: 35.24%
- Drug uptake [41]: 6.11%
